The record followed here is ChEMBL document CHEMBL1909046, “DrugMatrix in vitro pharmacology data”.

A short description of assay [1]: DRUGMATRIX: beta-Lactamase enzyme inhibition (substrate: Nitrocefin). Set-up: species or system Bacillus cereus. As to conditions: Not Active = under 50% inhibition at 10 µM.
The target of assay [2] is Vasopressin V1a receptor (Homo sapiens, UniProt P37288). Format: cell membranes, Membrane. As to conditions: hek293. Further: in other assays of this panel Not Active means under 50% inhibition at 10 µM.
The target in assay [3] is T1, Cholecystokinin receptor type A (Homo sapiens, UniProt P32238). Further: in other assays of this panel Not Active means under 50% inhibition at 10 µM.
T1 sequence (P32238 whole entry): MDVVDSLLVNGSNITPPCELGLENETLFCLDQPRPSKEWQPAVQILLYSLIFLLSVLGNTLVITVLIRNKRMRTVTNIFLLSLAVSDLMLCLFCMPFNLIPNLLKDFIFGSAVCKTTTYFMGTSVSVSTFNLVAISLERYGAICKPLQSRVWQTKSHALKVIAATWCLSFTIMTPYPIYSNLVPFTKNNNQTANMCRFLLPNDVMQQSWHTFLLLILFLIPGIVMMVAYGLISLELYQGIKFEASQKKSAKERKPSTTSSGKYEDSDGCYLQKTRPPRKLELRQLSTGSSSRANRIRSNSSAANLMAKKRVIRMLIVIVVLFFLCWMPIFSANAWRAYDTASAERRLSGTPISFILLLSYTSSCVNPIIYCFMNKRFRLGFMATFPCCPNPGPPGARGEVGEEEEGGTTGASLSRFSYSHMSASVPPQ
The class given is cell membranes, Membrane. To be noted: 1321-n1.

In assay [4] the target is Melanocortin receptor 3 (Homo sapiens, UniProt P41968). The class given is cell membranes, Membrane. As to conditions: hek293. Further: in other assays of this panel Not Active means under 50% inhibition at 10 µM.
Assay [5] in a line: DRUGMATRIX: Phosphodiesterase PDE4 enzyme inhibition (substrate: [3H]cAMP + cAMP). As to conditions: u-937, Not Active = under 50% inhibition at 10 µM.
Assay [6] concerns the target T2, Caspase-1 (Homo sapiens, UniProt P29466).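 Further: Caspase-1 enzyme inhibition assay with a peptide substrate; in other assays of this panel Not Active means under 50% inhibition at 10 µM.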
T2 sequence (P29466 whole entry): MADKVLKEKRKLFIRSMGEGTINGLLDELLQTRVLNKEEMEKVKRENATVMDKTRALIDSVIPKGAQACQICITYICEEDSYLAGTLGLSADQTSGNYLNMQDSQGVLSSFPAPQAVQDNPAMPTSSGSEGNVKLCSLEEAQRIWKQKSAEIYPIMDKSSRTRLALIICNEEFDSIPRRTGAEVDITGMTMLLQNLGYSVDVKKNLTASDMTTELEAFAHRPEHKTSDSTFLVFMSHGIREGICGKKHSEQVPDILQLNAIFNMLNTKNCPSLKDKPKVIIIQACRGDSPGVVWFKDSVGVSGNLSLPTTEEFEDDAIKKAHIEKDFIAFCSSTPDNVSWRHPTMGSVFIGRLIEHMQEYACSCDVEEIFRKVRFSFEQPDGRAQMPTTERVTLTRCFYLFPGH
Set-up: species or system Escherichia coli.

For assay [7], the target named is T3, Adenosine receptor A1 (Homo sapiens, UniProt P30542).
T3 sequence (P30542 whole entry): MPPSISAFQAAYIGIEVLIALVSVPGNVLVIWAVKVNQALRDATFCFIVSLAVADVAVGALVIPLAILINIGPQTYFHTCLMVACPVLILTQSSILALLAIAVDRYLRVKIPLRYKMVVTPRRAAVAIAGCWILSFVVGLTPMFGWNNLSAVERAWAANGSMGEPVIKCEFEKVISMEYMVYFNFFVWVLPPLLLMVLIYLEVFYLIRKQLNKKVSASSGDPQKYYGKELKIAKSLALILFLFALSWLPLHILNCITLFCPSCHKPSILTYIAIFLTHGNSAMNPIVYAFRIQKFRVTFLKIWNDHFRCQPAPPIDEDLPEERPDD
Format: cell membranes, CHO, Membrane. As to conditions: cho.

Assay [8] concerns the target T4, Glucocorticoid receptor (Homo sapiens, UniProt P04150). Further: in other assays of this panel Not Active means under 50% inhibition at 10 µM.
T4 sequence (P04150 whole entry): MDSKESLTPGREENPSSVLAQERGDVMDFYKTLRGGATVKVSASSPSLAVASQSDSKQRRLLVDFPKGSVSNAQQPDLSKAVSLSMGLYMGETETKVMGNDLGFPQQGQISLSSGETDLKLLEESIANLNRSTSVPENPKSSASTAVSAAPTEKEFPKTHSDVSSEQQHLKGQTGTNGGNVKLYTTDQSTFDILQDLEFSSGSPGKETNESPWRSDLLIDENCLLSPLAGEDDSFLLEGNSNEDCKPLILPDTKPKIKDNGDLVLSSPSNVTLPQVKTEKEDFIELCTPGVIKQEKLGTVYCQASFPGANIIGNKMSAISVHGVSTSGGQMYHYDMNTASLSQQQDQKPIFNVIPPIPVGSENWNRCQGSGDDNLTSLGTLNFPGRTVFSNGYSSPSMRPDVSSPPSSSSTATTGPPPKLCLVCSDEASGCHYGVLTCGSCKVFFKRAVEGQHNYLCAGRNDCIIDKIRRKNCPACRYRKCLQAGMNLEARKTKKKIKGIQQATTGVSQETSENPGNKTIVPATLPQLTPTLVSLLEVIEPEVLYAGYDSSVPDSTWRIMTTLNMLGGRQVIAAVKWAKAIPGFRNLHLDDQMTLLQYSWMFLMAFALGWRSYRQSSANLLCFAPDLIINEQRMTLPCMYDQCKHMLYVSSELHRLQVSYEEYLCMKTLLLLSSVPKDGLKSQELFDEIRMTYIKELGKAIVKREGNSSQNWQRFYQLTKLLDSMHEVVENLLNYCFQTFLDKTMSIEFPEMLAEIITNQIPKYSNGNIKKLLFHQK
To be noted: hela s3.

One may read the IC50 as the concentration at which inhibition is half-maximal.

Chain of Melanocortin receptor 3 (P41968 whole entry): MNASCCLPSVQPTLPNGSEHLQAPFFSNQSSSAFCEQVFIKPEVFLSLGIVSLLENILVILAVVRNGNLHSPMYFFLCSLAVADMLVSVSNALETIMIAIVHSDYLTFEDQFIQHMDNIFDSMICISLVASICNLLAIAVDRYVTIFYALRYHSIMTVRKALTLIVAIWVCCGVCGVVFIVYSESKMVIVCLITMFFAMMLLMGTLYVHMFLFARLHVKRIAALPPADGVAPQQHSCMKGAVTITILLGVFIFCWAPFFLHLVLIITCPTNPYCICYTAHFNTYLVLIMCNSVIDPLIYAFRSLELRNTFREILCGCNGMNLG
Chain of Vasopressin V1a receptor (P37288 whole entry): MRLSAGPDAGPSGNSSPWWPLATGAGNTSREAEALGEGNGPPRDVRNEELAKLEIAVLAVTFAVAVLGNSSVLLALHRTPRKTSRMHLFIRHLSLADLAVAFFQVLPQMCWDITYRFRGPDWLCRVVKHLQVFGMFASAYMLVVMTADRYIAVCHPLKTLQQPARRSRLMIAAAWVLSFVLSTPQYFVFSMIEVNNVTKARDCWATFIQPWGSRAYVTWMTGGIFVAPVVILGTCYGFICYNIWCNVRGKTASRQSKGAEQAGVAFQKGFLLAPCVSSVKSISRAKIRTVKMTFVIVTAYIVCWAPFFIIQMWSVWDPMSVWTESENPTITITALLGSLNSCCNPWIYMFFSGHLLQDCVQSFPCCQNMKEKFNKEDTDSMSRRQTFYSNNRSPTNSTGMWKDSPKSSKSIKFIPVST

`COc1cc(CNC(=O)CCCC/C=C/C(C)C)ccc1O` [CAPSAICIN]: the IC50 entry in assay [1], in assay [2], in assay [3], in assay [4], in assay [5] and in assay [6] was “Not Active” in each case. Also, the half-maximal inhibitory concentration (IC50) result in assay [7] and in assay [8] was “Not Active” each time. For the same compound, the Ki entry in assay [1] and in assay [5] was “Not Active” each time.

Take `CCOC(=O)n1ccn(C)c1=S` [CARBIMAZOLE]: the IC50 result in assay [1], in assay [2], in assay [3], in assay [4], in assay [5] and in assay [6] was “Not Active” throughout. Besides, the IC50 result in assay [7] and in assay [8] was “Not Active” in each case. Also, the Ki result in assay [1] and in assay [5] was “Not Active” each time.

Take `Oc1ccccc1O` [CATECHOL]: the IC50 result in assay [1], in assay [2], in assay [3], in assay [4], in assay [5] and in assay [6] was “Not Active” in each case. In addition, the IC50 result in assay [7] and in assay [8] was “Not Active” throughout. The Ki result in assay [1] and in assay [5] was “Not Active” throughout.

In the case of `CO[C@@]1(NC(=O)CSCC#N)C(=O)N2C(C(=O)O)=C(CSc3nnnn3C)CS[C@@H]21` [CEFMETAZOLE], the IC50 result in assay [1], in assay [2], in assay [3], in assay [4], in assay [5] and in assay [6] was “Not Active” each time. The IC50 result in assay [7] and in assay [8] was “Not Active” in each case. Also, the Ki entry in assay [1] and in assay [5] was “Not Active” throughout.

On to `CN(C(=O)CCCOc1ccc2[nH]c(=O)ccc2c1)C1CCCCC1` [CILOSTAMIDE], for which the IC50 result in assay [1], in assay [2], in assay [3], in assay [4], in assay [5] and in assay [6] was “Not Active” throughout. The half-maximal inhibitory concentration (IC50) entry in assay [7] and in assay [8] was “Not Active” in each case. The Ki result in assay [1] and in assay [5] was “Not Active” throughout.

On to `CC(C)(Oc1ccc(C2CC2(Cl)Cl)cc1)C(=O)O` (centres undefined) [CIPROFIBRATE], for which the IC50 entry in assay [1], in assay [2], in assay [3], in assay [4], in assay [5] and in assay [6] was “Not Active” in each case. The 50% inhibitory concentration (IC50) entry in assay [7] and in assay [8] was “Not Active” throughout. Moreover, the Ki entry in assay [1] and in assay [5] was “Not Active” each time.

For `Nc1nc(Cl)nc2c1ncn2[C@H]1C[C@H](O)[C@@H](CO)O1` [CLADRIBINE], the half-maximal inhibitory concentration (IC50) entry is “Not Active” in assay [1]; “Not Active” in assay [2]; “Not Active” in assay [3]; “Not Active” in assay [4]; 3.62 µM in assay [5] (read-out: IC50); “Not Active” in assay [6]. Further, the IC50 entry in assay [7] and in assay [8] was “Not Active” in each case. The Ki result in assay [1] is on record as “Not Active”.

`CC[C@H]1OC(=O)[C@H](C)[C@@H](O[C@H]2C[C@@](C)(OC)[C@@H](O)[C@H](C)O2)[C@H](C)[C@@H](O[C@@H]2O[C@H](C)C[C@H](N(C)C)[C@H]2O)[C@](C)(OC)C[C@@H](C)C(=O)[C@H](C)[C@@H](O)[C@]1(C)O` [CLARITHROMYCIN]: the IC50 entry in assay [1], in assay [2], in assay [3], in assay [4], in assay [5] and in assay [6] was “Not Active” in each case. Also, the half-maximal inhibitory concentration (IC50) entry in assay [7] and in assay [8] was “Not Active” throughout. Also, the Ki result in assay [1] and in assay [5] was “Not Active” in each case.

Consider `O=P1(N(CCCl)CCCl)NCCCO1` (centres undefined) [CYCLOPHOSPHAMIDE ANHYDROUS], for which the half-maximal inhibitory concentration (IC50) result in assay [1], in assay [2], in assay [3], in assay [4], in assay [5] and in assay [6] was “Not Active” each time. The half-maximal inhibitory concentration (IC50) result in assay [7] and in assay [8] was “Not Active” each time. In addition, the Ki result in assay [1] and in assay [5] was “Not Active” in each case.

Regarding `Nc1nc(N)nc(NC2CC2)n1` [CYROMAZINE], the 50% inhibitory concentration (IC50) entry in assay [1], in assay [2], in assay [3], in assay [4], in assay [5] and in assay [6] was “Not Active” in each case. In addition, the IC50 result in assay [7] and in assay [8] was “Not Active” throughout. Also, the Ki entry in assay [1] and in assay [5] was “Not Active” throughout.

Regarding `CCN[C@@H](C)Cc1cccc(C(F)(F)F)c1` [DEXFENFLURAMINE], the IC50 result in assay [1], in assay [2], in assay [3], in assay [4], in assay [5] and in assay [6] was “Not Active” each time. The half-inhibitory concentration (IC50) result in assay [7] and in assay [8] was “Not Active” each time. Besides, the Ki entry in assay [1] and in assay [5] was “Not Active” each time.

Regarding `CN1C(=O)CN=C(c2ccccc2)c2cc(Cl)ccc21` [DIAZEPAM], the 50% inhibitory concentration (IC50) result in assay [1], in assay [2], in assay [3], in assay [4], in assay [5] and in assay [6] was “Not Active” throughout. Further, the half-maximal inhibitory concentration (IC50) result in assay [7] and in assay [8] was “Not Active” in each case. For the same compound, the Ki entry in assay [1] and in assay [5] was “Not Active” each time.

For `CN1C[C@H](C(=O)N[C@]2(C)O[C@@]3(O)[C@@H]4CCCN4C(=O)[C@H](Cc4ccccc4)N3C2=O)C[C@@H]2c3cccc4[nH]cc(c34)C[C@H]21` [DIHYDROERGOTAMINE], the concentration for half-maximal inhibition (IC50) entry in assay [1], in assay [2], in assay [3], in assay [4], in assay [5] and in assay [6] was “Not Active” throughout. Besides, the 50% inhibitory concentration (IC50) entry in assay [7] and in assay [8] was “Not Active” each time. In addition, the Ki result in assay [1] and in assay [5] was “Not Active” in each case.

Regarding `Cc1c(N(C)CS(=O)(=O)[O-])c(=O)n(-c2ccccc2)n1C.[Na+]` [DIPYRONE SODIUM], the IC50 result in assay [1], in assay [2], in assay [3], in assay [4], in assay [5] and in assay [6] was “Not Active” throughout. For the same compound, the 50% inhibitory concentration (IC50) result in assay [7] and in assay [8] was “Not Active” in each case. The Ki result in assay [1] and in assay [5] was “Not Active” in each case.
